Experimental data reported in ChEMBL document CHEMBL5634123, “Design and synthesis of 1H-benzo[d]imidazole selective HDAC6 inhibitors with potential therapy for multiple myeloma” (Eur J Med Chem, 2023).
Activity calls are given as the source filed them. The rule behind the calls is not given here.

Assays:
[1] = molecular target: T1, Protein deacetylase HDAC6 (Homo sapiens, UniProt Q9UBN7); assay: Inhibition of HDAC6 (unknown origin) preincubated for 10 mins followed by substrate addition measured for 1 hr by fluorescence based assay
T1 sequence (Q9UBN7 whole entry): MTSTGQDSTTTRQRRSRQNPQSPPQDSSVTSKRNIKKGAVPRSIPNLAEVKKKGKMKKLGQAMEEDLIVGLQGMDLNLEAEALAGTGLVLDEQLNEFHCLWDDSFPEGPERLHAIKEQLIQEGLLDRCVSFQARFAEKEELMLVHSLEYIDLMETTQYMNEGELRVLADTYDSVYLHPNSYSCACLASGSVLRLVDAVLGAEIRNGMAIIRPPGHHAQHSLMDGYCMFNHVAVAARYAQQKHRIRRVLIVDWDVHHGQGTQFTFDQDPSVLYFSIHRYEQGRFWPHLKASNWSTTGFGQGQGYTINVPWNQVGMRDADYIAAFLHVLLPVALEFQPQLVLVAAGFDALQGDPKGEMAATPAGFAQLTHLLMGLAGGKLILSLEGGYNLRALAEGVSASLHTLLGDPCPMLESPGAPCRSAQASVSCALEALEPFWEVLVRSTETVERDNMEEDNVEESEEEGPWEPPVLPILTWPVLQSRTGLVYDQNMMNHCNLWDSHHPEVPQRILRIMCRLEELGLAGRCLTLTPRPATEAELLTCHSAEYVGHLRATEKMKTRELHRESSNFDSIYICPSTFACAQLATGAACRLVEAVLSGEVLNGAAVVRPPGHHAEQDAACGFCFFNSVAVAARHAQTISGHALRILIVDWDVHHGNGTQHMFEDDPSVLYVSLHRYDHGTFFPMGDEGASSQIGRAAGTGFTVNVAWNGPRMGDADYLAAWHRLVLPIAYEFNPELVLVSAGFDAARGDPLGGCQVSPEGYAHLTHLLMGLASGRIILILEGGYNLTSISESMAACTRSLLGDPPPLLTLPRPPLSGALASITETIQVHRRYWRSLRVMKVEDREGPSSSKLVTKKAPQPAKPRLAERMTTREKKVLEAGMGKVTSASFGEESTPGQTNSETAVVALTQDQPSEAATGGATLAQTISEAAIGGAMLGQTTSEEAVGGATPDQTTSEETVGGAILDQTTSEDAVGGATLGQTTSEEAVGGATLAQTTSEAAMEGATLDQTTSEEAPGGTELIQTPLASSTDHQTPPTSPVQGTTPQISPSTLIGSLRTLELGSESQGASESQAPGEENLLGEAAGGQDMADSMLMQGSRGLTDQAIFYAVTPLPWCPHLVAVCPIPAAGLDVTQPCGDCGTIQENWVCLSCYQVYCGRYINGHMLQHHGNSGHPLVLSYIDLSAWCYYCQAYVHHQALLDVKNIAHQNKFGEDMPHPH

Histone deacetylase 9 = Histone deacetylase 9 (Homo sapiens, UniProt Q9UKV0); assay: Inhibition of HDAC9 (unknown origin) preincubated for 10 mins followed by substrate addition by fluorescence based assay
RPMI-8226 [2] = assay: Upregulation of Ac-alpha-tubulin expression in human RPMI-8226 cells at 0.1 uM incubated for 24 hrs by Western blot analysis; type: functional, cell-based
[3] = molecular target: T2, Protein deacetylase HDAC6 (Homo sapiens) (UniProt Q9UBN7); assay: Inhibition of HDAC6 in human RPMI-8226 cells assessed as increase in Ac-H3 expression at 2.5 uM incubated for 24 hrs by Western blot analysis; type: cell-based
T2 sequence (whole entry): T1 sequence (Q9UBN7 whole entry)

RPMI-8226 [4] = assay: Induction of cell cycle arrest at S phase in human RPMI-8226 cells at 0.1 uM incubated for 24 hrs by PI staining based flow cytometry (reference value: 58.5 %); type: functional
RPMI-8226 [5] = assay: Induction of cell cycle arrest at G2 phase in human RPMI-8226 cells at 0.1 uM incubated for 24 hrs by PI staining based flow cytometry (reference value: 18.3 %); type: functional
RPMI-8226 [6] = assay: Induction of cell cycle arrest at G1 phase in human RPMI-8226 cells at 0.5 uM incubated for 24 hrs by PI staining based flow cytometry (reference value: 19.2 %); type: functional
RPMI-8226 [7] = assay: Induction of cell cycle arrest at G1 phase in human RPMI-8226 cells at 2.5 uM incubated for 24 hrs by PI staining based flow cytometry (reference value: 19.2 %); type: functional
RPMI-8226 [8] = assay: Induction of cell cycle arrest at S phase in human RPMI-8226 cells at 2.5 uM incubated for 24 hrs by PI staining based flow cytometry (reference value: 58.5 %); type: functional
RPMI-8226 [9] = assay: Induction of cell cycle arrest at G2 phase in human RPMI-8226 cells at 2.5 uM incubated for 24 hrs by PI staining based flow cytometry (reference value: 18.3 %); type: functional
RPMI-8226 [10] = assay: Induction of apoptosis in human RPMI-8226 cells assessed as late apoptotic cells at 0.1 uM incubated for 24 hrs by Annexin V-FITC/PI staining based flow cytometry (reference value: 2.78 %); type: functional
RPMI-8226 [11] = assay: Induction of apoptosis in human RPMI-8226 cells assessed as decrease in […] expression at 0.1 to 2.5 uM incubated for 24 hrs by Western blot analysis; type: functional, cell-based; conditions: dose 0.1-2.5 µM
RPMI-8226 [12] = assay: Induction of apoptosis in human RPMI-8226 cells assessed as increase in Bax expression at 0.1 to 2.5 uM incubated for 24 hrs by Western blot analysis; type: functional, cell-based; conditions: dose 0.1-2.5 µM
RPMI-8226 [13] = assay: Induction of apoptosis in human RPMI-8226 cells assessed as increase in caspase-3 expression at 0.1 to 2.5 uM incubated for 24 hrs by Western blot analysis; type: functional, cell-based; conditions: dose 0.1-2.5 µM
[14] = AUC (0 to t) in mouse at 1 mg/kg, iv; type: ADME, organism-based; conditions: in vivo
[15] = Cmax in mouse at 10 mg/kg, po; type: ADME, organism-based; conditions: in vivo
[16] = Oral bioavailability in mouse at 10 mg/kg; type: ADME, organism-based; conditions: in vivo
[17] = Toxicity in Balb/c nude mouse xenografted with human RPMI-8226 cells assessed as adverse effect on heart at 10 to 40 mg/kg, po qd for 21 days administered consecutively by H and E staining based analysis; type: organism-based; conditions: in vivo, 504 h, dose 10-40 mg/kg, time 21 day
[18] = Toxicity in Balb/c nude mouse xenografted with human RPMI-8226 cells assessed as adverse effect on spleen at 10 to 40 mg/kg, po qd for 21 days administered consecutively by H and E staining based analysis; type: organism-based; conditions: in vivo, 504 h, dose 10-40 mg/kg, time 21 day
[19] = Toxicity in Balb/c nude mouse xenografted with human RPMI-8226 cells assessed as adverse effect on kidney at 10 to 40 mg/kg, po qd for 21 days administered consecutively by H and E staining based analysis; type: organism-based; conditions: in vivo, 504 h, dose 10-40 mg/kg, time 21 day
[20] = Toxicity in Balb/c nude mouse xenografted with human RPMI-8226 cells assessed as adverse effect on serum ALT level at 10 to 40 mg/kg, po qd for 21 days administered consecutively; type: organism-based; conditions: in vivo, 504 h, dose 10-40 mg/kg, time 21 day
[21] = Toxicity in Balb/c nude mouse xenografted with human RPMI-8226 cells assessed as adverse effect on serum total protein level at 10 to 40 mg/kg, po qd for 21 days administered consecutively; type: organism-based; conditions: in vivo, 504 h, dose 10-40 mg/kg, time 21 day
MDA-MB-468 = assay: cells; conditions: Homo sapiens, MDA-MB-468, 24 h

Histone deacetylase 9, sequence (Q9UKV0 whole entry): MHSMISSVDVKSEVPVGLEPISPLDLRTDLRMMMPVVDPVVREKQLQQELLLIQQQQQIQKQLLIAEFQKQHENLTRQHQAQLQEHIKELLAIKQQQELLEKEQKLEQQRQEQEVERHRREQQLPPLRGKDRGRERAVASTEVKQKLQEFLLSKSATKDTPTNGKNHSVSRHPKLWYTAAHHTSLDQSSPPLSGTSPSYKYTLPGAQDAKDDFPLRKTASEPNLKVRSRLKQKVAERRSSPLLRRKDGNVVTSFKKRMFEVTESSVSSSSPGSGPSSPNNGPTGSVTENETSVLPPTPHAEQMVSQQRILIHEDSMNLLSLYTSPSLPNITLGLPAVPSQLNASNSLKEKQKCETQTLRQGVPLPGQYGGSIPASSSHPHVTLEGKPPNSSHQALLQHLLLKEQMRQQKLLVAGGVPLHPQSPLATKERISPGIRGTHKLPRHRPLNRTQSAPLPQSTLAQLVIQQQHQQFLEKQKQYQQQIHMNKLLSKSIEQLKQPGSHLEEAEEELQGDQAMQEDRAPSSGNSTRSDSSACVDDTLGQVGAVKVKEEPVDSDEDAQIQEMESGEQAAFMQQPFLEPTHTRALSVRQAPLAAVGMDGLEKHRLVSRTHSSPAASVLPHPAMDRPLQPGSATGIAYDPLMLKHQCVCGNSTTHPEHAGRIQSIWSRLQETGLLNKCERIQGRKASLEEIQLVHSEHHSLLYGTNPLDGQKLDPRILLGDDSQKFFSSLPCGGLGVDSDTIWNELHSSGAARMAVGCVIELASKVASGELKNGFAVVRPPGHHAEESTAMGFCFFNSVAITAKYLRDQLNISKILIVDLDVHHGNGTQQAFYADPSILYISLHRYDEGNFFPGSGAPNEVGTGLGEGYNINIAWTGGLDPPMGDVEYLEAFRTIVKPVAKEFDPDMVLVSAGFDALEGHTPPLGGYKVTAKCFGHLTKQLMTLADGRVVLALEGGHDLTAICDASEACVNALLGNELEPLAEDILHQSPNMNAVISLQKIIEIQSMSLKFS

- IC50 [1]: 0.00463 µM
- IC50 (Histone deacetylase 9): 1.88 µM
- inhibition [3]: Active
- AUC(0-t) [14]: 202 ng·h/mL
- Cmax [15]: 177 ng/mL
- bioavailability [16]: 4.6%
- IC50 (MDA-MB-468): > 50 µM
SMILES: Cn1c([C@@H](Cc2ccccc2)NCc2ccccc2)nc2cc(C(=O)NO)ccc21
- Activity (RPMI-8226 [2]): inactive
- Activity (RPMI-8226 [4]): 54%
- Activity (RPMI-8226 [5]): 21.1%
- Activity (RPMI-8226 [6]): 24.5%
- Activity (RPMI-8226 [7]): 26.8%
- Activity (RPMI-8226 [8]): 39.8%
- Activity (RPMI-8226 [9]): 25.6%
- Activity (RPMI-8226 [10]): 4.28%
- Activity (RPMI-8226 [11]): Active
- Activity (RPMI-8226 [12]): Active
- Activity (RPMI-8226 [13]): Active
- Activity [17]: Non-Toxic
- Activity [18]: Non-Toxic
- Activity [19]: Non-Toxic
- Activity [20]: Non-Toxic
- Activity [21]: Non-Toxic
